The results in this text go back to patent US20230286970A1, “NOVEL OXADIAZOLE-BASED SELECTIVE HDAC6 INHIBITORS” (ITALFARMACO S.P.A., priority 2020, published 2023).

Molecules are shown by their SMILES. Bounds are passed on as bounds.

One assay addresses recombinant human HDAC1 (Homo sapiens (Human), UniProt Q13547). The assay is described as follows: Enzymatic screening, HDAC1 inhibition (fluorogenic FdL_G substrate). The format is biochemical. In short, it runs like this: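 Recombinant human HDAC1 inhibition was measured fluorometrically using the FLUOR DE LYS-Green (FdL_G) substrate. Compounds at 8 doses (1% DMSO final) in Tris-HCl pH 8 buffer with NaCl, Tween-20 and glycerol were preincubated in triplicate with enzyme and 1 mg/mL BSA, then given substrate. Developer I plus 2 μM TSA was added, and fluorescence read after 25 minutes in the dark.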

The next assay addresses recombinant human HDAC6 (Homo sapiens (Human), UniProt Q9UBN7). The assay is described as follows: Enzymatic screening, HDAC6 inhibition (fluorogenic FdL_G substrate). The format is biochemical. In short, it runs like this: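 Enzyme was preincubated with compound (8 doses, triplicate, 1% DMSO) in 25 mM Tris-HCl pH 8, 130 mM NaCl, 0.05% Tween-20, 10% glycerol, with BSA. A FLUOR DE LYS-Green substrate was then added, and fluorescence was read after developer plus 2 μM TSA.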

Chain of recombinant human HDAC6 (Q9UBN7 whole entry): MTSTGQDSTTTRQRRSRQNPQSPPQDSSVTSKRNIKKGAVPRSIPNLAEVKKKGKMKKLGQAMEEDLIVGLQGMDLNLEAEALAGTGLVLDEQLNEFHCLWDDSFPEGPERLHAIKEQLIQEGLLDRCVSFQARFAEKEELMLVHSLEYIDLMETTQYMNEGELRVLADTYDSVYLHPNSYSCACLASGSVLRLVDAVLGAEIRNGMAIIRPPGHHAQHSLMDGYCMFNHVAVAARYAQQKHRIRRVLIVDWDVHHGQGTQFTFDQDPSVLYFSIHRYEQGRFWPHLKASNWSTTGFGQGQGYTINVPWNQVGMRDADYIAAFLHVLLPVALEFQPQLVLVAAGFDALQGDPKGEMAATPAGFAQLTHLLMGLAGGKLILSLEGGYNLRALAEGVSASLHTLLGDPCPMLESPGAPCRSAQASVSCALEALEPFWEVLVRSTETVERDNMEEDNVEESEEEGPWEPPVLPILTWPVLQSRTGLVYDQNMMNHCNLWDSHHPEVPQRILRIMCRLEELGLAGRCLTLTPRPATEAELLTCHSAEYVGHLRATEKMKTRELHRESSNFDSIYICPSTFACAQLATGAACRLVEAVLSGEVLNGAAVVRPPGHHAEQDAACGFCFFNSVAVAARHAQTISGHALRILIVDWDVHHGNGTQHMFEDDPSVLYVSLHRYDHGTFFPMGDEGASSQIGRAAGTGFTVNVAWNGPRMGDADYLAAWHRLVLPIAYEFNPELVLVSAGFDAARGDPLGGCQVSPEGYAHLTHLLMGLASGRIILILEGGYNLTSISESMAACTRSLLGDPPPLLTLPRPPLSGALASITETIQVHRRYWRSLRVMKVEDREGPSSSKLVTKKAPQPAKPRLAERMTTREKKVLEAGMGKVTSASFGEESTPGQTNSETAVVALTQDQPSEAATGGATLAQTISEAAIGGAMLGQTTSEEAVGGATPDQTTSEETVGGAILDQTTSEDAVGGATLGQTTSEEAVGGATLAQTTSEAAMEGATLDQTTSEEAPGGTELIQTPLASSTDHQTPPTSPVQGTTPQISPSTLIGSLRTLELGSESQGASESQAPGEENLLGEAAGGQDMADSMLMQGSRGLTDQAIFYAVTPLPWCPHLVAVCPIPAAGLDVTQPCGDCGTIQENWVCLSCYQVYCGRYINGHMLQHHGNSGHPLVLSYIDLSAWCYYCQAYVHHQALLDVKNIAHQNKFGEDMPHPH
Chain of recombinant human HDAC1 (Q13547 whole entry): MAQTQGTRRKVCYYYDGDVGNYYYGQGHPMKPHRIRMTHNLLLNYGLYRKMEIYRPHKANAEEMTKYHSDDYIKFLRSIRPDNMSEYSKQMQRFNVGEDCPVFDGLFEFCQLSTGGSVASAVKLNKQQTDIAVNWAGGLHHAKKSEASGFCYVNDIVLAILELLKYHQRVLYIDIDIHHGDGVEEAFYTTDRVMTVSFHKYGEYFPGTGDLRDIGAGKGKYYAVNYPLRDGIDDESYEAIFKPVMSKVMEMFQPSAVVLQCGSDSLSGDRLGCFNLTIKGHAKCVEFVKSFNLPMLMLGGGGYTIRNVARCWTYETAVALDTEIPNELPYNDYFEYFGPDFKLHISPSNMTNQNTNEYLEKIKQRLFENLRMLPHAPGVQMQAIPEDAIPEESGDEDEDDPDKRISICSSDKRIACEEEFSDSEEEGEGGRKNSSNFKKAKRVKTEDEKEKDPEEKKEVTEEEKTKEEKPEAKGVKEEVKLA

In general, IC50 refers to the midpoint of a concentration-inhibition curve. In the case of `[2H]C([2H])(c1ccc(-c2nnc(C(F)F)o2)cc1F)n1cc(-c2ccc3nc(N)sc3c2)nn1` [compound 382, 6-[1-[dideuterio-[4-[5-(difluoromethyl)-1,3,4-oxadiazol-2-yl]-2-fluorophenyl]methyl]triazol-4-yl]-1,3-benzothiazol-2-amine], the IC50 was over 1e+06 nM at recombinant human HDAC1 and 18 nM on recombinant human HDAC6.
Take `O=C(Nc1cccc(-c2cn(Cc3cc(F)c(-c4nnc(C(F)F)o4)cc3F)nn2)c1)N1CCOCC1` [compound 363, N-[3-[1-[[4-[5-(difluoromethyl)-1,3,4-oxadiazol-2-yl]-2,5-difluorophenyl]methyl]triazol-4-yl]phenyl]morpholine-4-carboxamide]: the IC50 on recombinant human HDAC1 is over 1e+06 nM; at recombinant human HDAC6 it was 29 nM.
The corresponding values for `NCc1ccc(-c2nc(Cc3c(F)cc(-c4nnc(C(F)F)o4)cc3F)no2)cc1` [compound 100, (4-(3-(4-(5-(difluoromethyl)-1,3,4-oxadiazol-2-yl)-2,6-difluorobenzyl)-1,2,4-oxadiazol-5-yl)phenyl)methanamine] are over 200000 nM and 39 nM.
The corresponding values for `CN1CCN(c2cccc(-c3nnn(Cc4ccc(-c5nnc(C(F)F)o5)cc4)n3)c2)CC1` [compound 58, 2-(difluoromethyl)-5-(4-((5-(3-(4-methylpiperazin-1-yl)phenyl)-2H-tetrazol-2-yl)methyl)phenyl)-1,3,4-oxadiazole] are over 200000 nM and 25 nM.
Consider `Nc1ccc(-c2noc(C(F)(F)c3ccc(-c4nnc(C(F)F)o4)cc3)n2)cn1` [Compd. 243, 5-(5-((4-(5-(difluoromethyl)-1,3,4-oxadiazol-2-yl)phenyl)difluoromethyl)-1,2,4-oxadiazol-3-yl)pyridin-2-amine], for which the figures for the IC50 at recombinant human HDAC1 and at recombinant human HDAC6 were over 200000 nM and 234 nM, respectively.
The corresponding values for `FC(F)c1nnc(-c2ccc(Cn3nnc(Cc4ccccn4)n3)cc2)o1` [compound 251, 2-(difluoromethyl)-5-(4-((5-(pyridin-2-ylmethyl)-2H-tetrazol-2-yl)methyl)phenyl)-1,3,4-oxadiazole] are over 200000 nM and 298 nM.
For `Nc1ccc(-c2nc(Cc3c(F)cc(-c4nnc(C(F)F)o4)cc3F)no2)cn1` [compound 141, 5-(3-(4-(5-(difluoromethyl)-1,3,4-oxadiazol-2-yl)-2,6-difluorobenzyl)-1,2,4-oxadiazol-5-yl)pyridin-2-amine] the same measures were over 200000 nM and 56 nM.
`Nc1ccc(-c2nnn(Cc3c(F)cc(-c4nnc(C(F)F)o4)cc3F)n2)cn1` [compound 45, 5-(2-(4-(5-(difluoromethyl)-1,3,4-oxadiazol-2-yl)-2,6-difluorobenzyl)-2H-tetrazol-5-yl)pyridin-2-amine]: the results for the IC50 at recombinant human HDAC1 and at recombinant human HDAC6 were over 200000 nM and 20 nM, respectively.
In the case of `Fc1cc(-c2nnc(C(F)F)o2)c(F)cc1Cn1cnc(-c2ccc(NC3=NCCN3)cc2)c1` [compound 361, N-[4-[1-[[4-[5-(difluoromethyl)-1,3,4-oxadiazol-2-yl]-2,5-difluorophenyl]methyl]imidazol-4-yl]phenyl]-4,5-dihydro-1H-imidazol-2-amine], the values for the IC50 on recombinant human HDAC1 and at recombinant human HDAC6 were over 1e+06 nM and 9 nM, respectively.
As to `Nc1nc2cc(-c3cnn(Cc4ccc(-c5nnc(C(F)F)o5)cc4)c3)ccc2[nH]1` [compound 332, 5-[1-[[4-[5-(difluoromethyl)-1,3,4-oxadiazol-2-yl]phenyl]methyl]pyrazol-4-yl]-1H-benzimidazol-2-amine], the results for the IC50 on recombinant human HDAC1 and at recombinant human HDAC6 were over 1e+06 nM and 67 nM, respectively.
For `Nc1nc2cc(-c3cnn(Cc4ccc(-c5nnc(C(F)F)o5)cn4)c3)ccc2[nH]1` [compound 331, 5-[1-[[5-[5-(difluoromethyl)-1,3,4-oxadiazol-2-yl]pyridin-2-yl]methyl]pyrazol-4-yl]-1H-benzimidazol-2-amine] the same measures were over 1e+06 nM and 52 nM.
